Reference: patent publication US8486962B2, “Antifungal agents” (F2G Ltd., priority 2005, dated 2013)
In brackets after ≈: the same amount, converted by molar mass. Like-named read-outs stand apart in the source and are kept apart here.

Key:
[1] = test system: Aspergillus fumigatus AF293; test: MIC, YAG medium, Aspergillus fumigatus AF293; type: cell-based; conditions: for MIC: Aspergillus fumigatus
Method in brief: (§1)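 MICs in mg/L are lowest drug levels suppressing growth (OD 485 nm) relative to drug-free wells: Aspergillus in YAG at >70%, 24 hrs; Candida albicans in buffered RPMI at >80%, 24-48 hrs. Both incubated at 35° C across 50-0.05 mg/L doubling dilutions.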

Aspergillus niger = test: MIC, YAG medium, Aspergillus niger; type: cell-based; conditions: for MIC: Aspergillus niger
Method in brief: as §1

Aspergillus terreus = test: MIC, YAG medium, Aspergillus terreus; type: cell-based; conditions: for MIC: Aspergillus terreus
Method in brief: as §1

Aspergillus flavus = test: MIC, YAG medium, Aspergillus flavus; type: cell-based; conditions: for MIC: Aspergillus flavus
Method in brief: as §1

[2] = test system: Aspergillus fumigatus AF210; test: MIC, YAG medium, Aspergillus fumigatus AF210; type: cell-based; conditions: for MIC: Aspergillus fumigatus
Method in brief: as §1

A Terreus 49 = test: MIC, YAG medium, A Terreus 49; type: cell-based, Aspergillus terreus; conditions: for MIC: Aspergillus terreus, read-out: MIC A Terreus 49
Experimental: Measurement of Minimum Inhibitory Concentrations (MICs)
Between 1 and 5 mgs of compound were accurately weighed out into a sterile Eppendorf tube. The compound was dissolved in DMSO to give a solution containing 5 mg/ml. Tubes were stored at −20° C. until required.
On the day of testing thawed solutions were vortex mixed to ensure homogeneity. 30 μl of solution was removed and added to 570 μl of sterile water in a separate sterile Eppendorf. The thoroughly mixed solution was used to prepare a series of doubling dilutions in water, in a deep well plate. Eleven replicate plates were prepared using a Minitrak by aspirating 20 μl from each well into eleven clear polystyrene 96 well plates.
Spores of Aspergillus spp (Aspergillus fumigatus, Aspergillus terreus, Aspergillus niger and Aspergillus flavus) were harvested from cultures grown on Sabarauds agar for 5 days, and resuspended in PBS/Tween 80 to approx 1×10^7 cfu/ml Other filamentous fungi (Fusarium solani, Scedosporium spp., Trichophyton spp., Absidia corymbifera), were grown on Sabarauds agar for 2-10 days and spores/hyphae resuspended in PBS/Tween to give approx 1×10^7 cfU/ml. Candida species (Candida albicans, Candida glabrata, Candida krusei, Candida parapsilosis and Candida tropicalis) were grown on Sabarauds agar, cells were harvested from the agar using a sterile loop and resuspended in PBS/Tween 80 to approx 1×10^6 cfu/ml. Each organism suspension was diluted in RPMI medium, containing 2% glucose and 0.135M MOPS buffer (pH7.0) to 2×10^4 cfu/ml for Aspergillus spp and other filamentous fungi and 2×10^3 cfu/ml for yeast. 80 μl of an organism suspension was added to each well of the plate containing drug dilutions.
This produced MIC plates with a drug range 50-0.05 mg/L and organism inocula of 1-2×10^4 cfu/ml for Aspergillus spp and other filamentous fungi and 1-2×10^3 cfu/ml for yeasts. All plates were incubated for 24-48 hrs at 35° C. Growth was assessed by monitoring the optical density at 485 nm for each well. The MIC of a compound is the lowest drug concentration that inhibits growth of an organism by >80% compared with a drug free control. MICs are recorded as mg/L. Other growth media can be used for susceptibility testing, and the activity of the described compounds can also be assessed in a medium comprising, 1% glucose, 1% ammonium chloride and 0.5% yeast extract (YAG medium). To perform MIC tests in this medium, dilutions of compounds are prepared in microtitre plates as described above. Fungal strains to be tested are grown and harvested in an identical manner to that described above, each organism suspension is then diluted in YAG medium to 2×10^4 cfu/ml for Aspergillus spp and other filamentous fungi and 2×10^3 cfu/ml for yeast. 80 μl of an organism suspension was added to each well of the plate containing drug dilutions. This produced MIC plates with a drug range 50-0.05 mg/L and organism inocula of 1-2×10^4 cfu/ml for Aspergillus spp and other filamentous fungi and 1-2×10^3 cfu/ml for yeasts. All plates were incubated for 24 hrs at 35° C. Growth was assessed by monitoring the optical density at 485 nm for each well. The MIC of a compound is the lowest drug concentration that inhibits growth of an organism by >70% compared with a drug free control. MICs are recorded as mg/L. In cases where the MIC of an organism is […]0.05 mg/L the MIC is repeated using a concentration range of 0.5-0.0005 mg/L. MIC tests in YAG medium have more clear-cut endpoints and have slightly lower MICS than those performed in RPMI medium.
The following organisms were tested: Aspergillus fumigatus AF293 and Aspergillus fumigatus AF210, Aspergillus niger, Aspergillus terreus, Aspergillus favus, Candida albicans, Candida krusei, Candida tropicalis, Candida glabrata, Candida parapsilosis, Trichophyton rubrum, Trichophyton mentagrophytes, Scedosporium prolificans, Scedosporium apiospermum, Absidia corymbifera, Fusarium solani.

[3] = AF293, YAG medium, read-out: MIC A Fum. 293
[4] = YAG medium, read-out: MIC A Niger 1
[5] = YAG medium, read-out: MIC A Terreus 4
[6] = YAG medium, read-out: MIC A Flavus 01
[7] = AF210, YAG medium, read-out: MIC A Fum. 210

Row | Compound | MIC [1, 3] [mg/L] | MIC (Aspergillus niger; [4]) [mg/L] | MIC (Aspergillus terreus; [5]) [mg/L] | MIC (Aspergillus flavus; [6]) [mg/L] | MIC [2, 7] [mg/L] | MIC (A Terreus 49; YAG medium) [mg/L] | other results
1 | COc1ccc(NC(=O)C(=NOCCN(C)C)c2c(-c3ccccc3)cc3ccccn23)cc1 (mixture of isomers) [Example 295, 2-[(E/Z)-2-Dimethylamino-ethoxyimino]-N-(4-methoxy-phenyl)-2-(2-phenyl-indolizin-3-yl)-acetamide] |  |  |  |  |  |  | MIC A Fum. 293 ([1]; YAG medium): >50 mg/L; MIC A Niger 1 (Aspergillus niger; YAG medium): 25 mg/L; MIC A Terreus 4 (Aspergillus terreus; YAG medium): 6.25 mg/L; MIC A Flavus 01 (Aspergillus flavus; YAG medium): 12.5 mg/L; MIC A Fum. 210 ([2]; YAG medium): 50 mg/L; MIC A Terreus 49 (A Terreus 49; YAG medium): 6.25 mg/L
2 | COc1ccc(NC(=O)C(=O)c2c(-c3ccc(C)cc3)cc3ccccn23)cc1 [Example 238, N-(4-Methoxy-phenyl)-2-oxo-2-(2-p-tolyl-indolizin-3-yl)-acetamide] | 0.5 (≈ 1.3 µM) | 0.015 (≈ 0.039 µM) | 0.015 (≈ 0.039 µM) | 0.015 (≈ 0.039 µM) | 0.25 (≈ 0.65 µM) | 0.008 (≈ 0.0208 µM) | 
3 | CCN(CC)C(=O)Oc1cccc(NC(=O)C(=O)c2c(-c3ccccc3)cc3ccccn23)c1 [Example 266, Diethyl-carbamic acid 3-[2-oxo-2-(2-phenyl-indolizin-3-yl)-acetylamino]-phenyl ester] |  |  |  |  |  |  | MIC ([1]; AF293, read-out: MIC A Fum. 293): 0.8 mg/L (≈ 1.76 µM); MIC (Aspergillus niger; read-out: MIC A Niger 1): 6.25 mg/L (≈ 13.7 µM); MIC (Aspergillus terreus; read-out: MIC A Terreus 4): 0.2 mg/L (≈ 0.439 µM); MIC (Aspergillus flavus; read-out: MIC A Flavus 01): 0.2 mg/L (≈ 0.439 µM); MIC ([2]; AF210, read-out: MIC A Fum. 210): 1.6 mg/L (≈ 3.51 µM); MIC (A Terreus 49): 0.2 mg/L (≈ 0.439 µM)
4 | CS(=O)(=O)c1ccc(NC(=O)C(=O)c2c(-c3ccccc3)cc3ccccn23)cc1 [Example 257, N-(4-Methanesulfonyl-phenyl)-2-oxo-2-(2-phenyl-indolizin-3-yl)-acetamide] | 6.25 (≈ 14.9 µM) | 0.8 (≈ 1.91 µM) | 0.4 (≈ 0.956 µM) | 0.4 (≈ 0.956 µM) | 3.1 (≈ 7.41 µM) | 0.4 (≈ 0.956 µM) | 
5 | Cc1ccc(NC(=O)C(=O)c2c(-c3ccccc3)cc3ccccn23)c(C)c1C [Example 259, 2-Oxo-2-(2-phenyl-indolizin-3-yl)-N-(2,3,4-trimethyl-phenyl)-acetamide] | 0.06 (≈ 0.157 µM) | 0.03 (≈ 0.0784 µM) | 0.002 (≈ 0.00523 µM) | 0.015 (≈ 0.0392 µM) | 0.06 (≈ 0.157 µM) | 0.004 (≈ 0.0105 µM) | 
6 | CC(C)c1ccc(NC(=O)C(=O)c2c(-c3ccccc3)cc3ccccn23)cc1 [Example 252, N-(4-Isopropyl-phenyl)-2-oxo-2-(2-phenyl-indolizin-3-yl)-acetamide] | 0.008 (≈ 0.0209 µM) | 0.004 (≈ 0.0105 µM) | 0.008 (≈ 0.0209 µM) | 0.015 (≈ 0.0392 µM) | 0.062 (≈ 0.162 µM) | 0.002 (≈ 0.00523 µM) | 
7 | N#Cc1ccc(NC(=O)C(=O)c2c(-c3ccccc3)cc3ccccn23)cc1 [Example 150, N-(4-Cyano-phenyl)-2-oxo-2-(2-phenyl-indolizin-3-yl)-acetamide] | 1.6 (≈ 4.38 µM) | 0.25 (≈ 0.684 µM) | 0.5 (≈ 1.37 µM) | 0.125 (≈ 0.342 µM) | 1.6 (≈ 4.38 µM) | 0.12 (≈ 0.328 µM) | 
8 | CN1CCN(c2ccc(NC(=O)C(=O)c3c(-c4ccccc4)cc4ccccn34)cc2)CC1 [Example 262, N-[4-(4-Methyl-piperazin-1-yl)-phenyl]-2-oxo-2-(2-phenyl-indolizin-3-yl)-acetamide] | 1.6 (≈ 3.65 µM) | 6.25 (≈ 14.3 µM) | 1.6 (≈ 3.65 µM) | 1.6 (≈ 3.65 µM) | 1.6 (≈ 3.65 µM) | 1.6 (≈ 3.65 µM) | 
9 | O=C(Nc1ccc(N2CCCCC2)cc1)C(=O)c1c(-c2ccccc2)cc2ccccn12 [Example 307, 2-Oxo-2-(2-phenyl-indolizin-3-yl)-N-(4-piperidin-1-yl-phenyl)-acetamide] | 0.008 (≈ 0.0189 µM) |  |  |  | 0.05 (≈ 0.118 µM) | 0.001 (≈ 0.00236 µM) | MIC (Aspergillus niger; YAG medium, read-out: MIC A Niger): 0.008 mg/L (≈ 0.0189 µM); MIC (Aspergillus terreus; YAG medium, read-out: MIC A Terreus): 0.002 mg/L (≈ 0.00472 µM); MIC (Aspergillus flavus; YAG medium, read-out: MIC A Flavus): 0.008 mg/L (≈ 0.0189 µM)
10 | Cc1ccccc1-c1cc2ccccn2c1C(=O)C(=O)Nc1ccc(OCC(F)(F)C(F)F)nc1 [Example 286, 2-Oxo-N-[6-(2,2,3,3-tetrafluoro-propoxy)-pyridin-3-yl]-2-(2-o-tolyl-indolizin-3-yl)-acetamide] | 0.1 (≈ 0.206 µM) | 0.015 (≈ 0.0309 µM) | 0.1 (≈ 0.206 µM) | 0.015 (≈ 0.0309 µM) | 0.1 (≈ 0.206 µM) | 0.015 (≈ 0.0309 µM) | 
11 | O=C(Nc1cc(Cl)cc(Cl)c1)C(=O)c1c(-c2ccccc2)cc2ccccn12 [Example 220, N-(3,5-Dichloro-phenyl)-2-oxo-2-(2-phenyl-indolizin-3-yl)-acetamide] | 0.12 (≈ 0.293 µM) | 0.062 (≈ 0.151 µM) | 0.031 (≈ 0.0757 µM) | 0.015 (≈ 0.0367 µM) | 0.12 (≈ 0.293 µM) | 0.008 (≈ 0.0195 µM) | 

Now from value to compound, other results behind:

Row | MIC [1, 3] [mg/L] | MIC (Aspergillus niger; [4]) [mg/L] | MIC (Aspergillus terreus; [5]) [mg/L] | MIC (Aspergillus flavus; [6]) [mg/L] | MIC [2, 7] [mg/L] | MIC (A Terreus 49; YAG medium) [mg/L] | Compound | other results
12 | 0.12 (≈ 0.324 µM) | 0.12 (≈ 0.324 µM) | 0.031 (≈ 0.0837 µM) | 0.015 (≈ 0.0405 µM) | 0.12 (≈ 0.324 µM) | 0.004 (≈ 0.0108 µM) | COc1cccc(NC(=O)C(=O)c2c(-c3ccccc3)cc3ccccn23)c1 [Example 138, N-(3-Methoxy-phenyl)-2-oxo-2-(2-phenyl-indolizin-3-yl)-acetamide] | 
13 | 0.062 (≈ 0.175 µM) | 0.015 (≈ 0.0423 µM) | 0.004 (≈ 0.0113 µM) | 0.008 (≈ 0.0226 µM) | 0.062 (≈ 0.175 µM) | 0.008 (≈ 0.0226 µM) | Cc1cccc(NC(=O)C(=O)c2c(-c3ccccc3)cc3ccccn23)c1 [Example 206, 2-Oxo-2-(2-phenyl-indolizin-3-yl)-N-m-tolyl-acetamide] | 
14 | 0.2 (≈ 0.54 µM) | 0.062 (≈ 0.167 µM) | 0.06 (≈ 0.162 µM) | 0.125 (≈ 0.337 µM) | 0.5 (≈ 1.35 µM) | 0.06 (≈ 0.162 µM) | COc1ccccc1NC(=O)C(=O)c1c(-c2ccccc2)cc2ccccn12 [Example 137, N-(2-Methoxy-phenyl)-2-oxo-2-(2-phenyl-indolizin-3-yl)-acetamide] | 
15 | 0.25 (≈ 0.734 µM) | 0.031 (≈ 0.0911 µM) | 0.031 (≈ 0.0911 µM) | 0.031 (≈ 0.0911 µM) | 0.12 (≈ 0.353 µM) | 0.004 (≈ 0.0118 µM) | O=C(Nc1ccccc1)C(=O)c1c(-c2ccccc2)cc2ccccn12 [Example 136, 2-Oxo-N-phenyl-2-(2-phenyl-indolizin-3-yl)-acetamide] | 
16 | 0.5 (≈ 1.3 µM) | 0.12 (≈ 0.312 µM) | 0.12 (≈ 0.312 µM) | 0.031 (≈ 0.0806 µM) | 0.5 (≈ 1.3 µM) | 0.062 (≈ 0.161 µM) | CN(C)c1ccc(NC(=O)C(=O)c2c(-c3ccccc3)cc3ccccn23)cn1 [Example 229, N-(6-Dimethylamino-pyridin-3-yl)-2-oxo-2-(2-phenyl-indolizin-3-yl)-acetamide] | 
17 | 0.5 (≈ 1.4 µM) | 0.015 (≈ 0.0419 µM) | 0.015 (≈ 0.0419 µM) | 0.12 (≈ 0.335 µM) | 0.25 (≈ 0.698 µM) | 0.015 (≈ 0.0419 µM) | O=C(Nc1ccccc1F)C(=O)c1c(-c2ccccc2)cc2ccccn12 [Example 201, N-(2-Fluoro-phenyl)-2-oxo-2-(2-phenyl-indolizin-3-yl)-acetamide] | 
18 | 0.25 (≈ 0.698 µM) | 0.031 (≈ 0.0865 µM) | 0.015 (≈ 0.0419 µM) | 0.062 (≈ 0.173 µM) | 0.25 (≈ 0.698 µM) | 0.015 (≈ 0.0419 µM) | O=C(Nc1ccc(F)cc1)C(=O)c1c(-c2ccccc2)cc2ccccn12 [Example 200, N-(4-Fluoro-phenyl)-2-oxo-2-(2-phenyl-indolizin-3-yl)-acetamide] | 
